Where two headings read alike, the source gives them in different places.
How the values were obtained:
OATP1B1 [1] = target: T1, OATP1B1 (Homo sapiens, UniProt Q9Y6L6); conditions: read-out: OATP1B1 Km; literature value; cited from earlier work
OATP1B3 [2] = target: T2, OATP1B3 (Homo sapiens, UniProt Q9NPD5)
T2 sequence (Q9NPD5 1-702): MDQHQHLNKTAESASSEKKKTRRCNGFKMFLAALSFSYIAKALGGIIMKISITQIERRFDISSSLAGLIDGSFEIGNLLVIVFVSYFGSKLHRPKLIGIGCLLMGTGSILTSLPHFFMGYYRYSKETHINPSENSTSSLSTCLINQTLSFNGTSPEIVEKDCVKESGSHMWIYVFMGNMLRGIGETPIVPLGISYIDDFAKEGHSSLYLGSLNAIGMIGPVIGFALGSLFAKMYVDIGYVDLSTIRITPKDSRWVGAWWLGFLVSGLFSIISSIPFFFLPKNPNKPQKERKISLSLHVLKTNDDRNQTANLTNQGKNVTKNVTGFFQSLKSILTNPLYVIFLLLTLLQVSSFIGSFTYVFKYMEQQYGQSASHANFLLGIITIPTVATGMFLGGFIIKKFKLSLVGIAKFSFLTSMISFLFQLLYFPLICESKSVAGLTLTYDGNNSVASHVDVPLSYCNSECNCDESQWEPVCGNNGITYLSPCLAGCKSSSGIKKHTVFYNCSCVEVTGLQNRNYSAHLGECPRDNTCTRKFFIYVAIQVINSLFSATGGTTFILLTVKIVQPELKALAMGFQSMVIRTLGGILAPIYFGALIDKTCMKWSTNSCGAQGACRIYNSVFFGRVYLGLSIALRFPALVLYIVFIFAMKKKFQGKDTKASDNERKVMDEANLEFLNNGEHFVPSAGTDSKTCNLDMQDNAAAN

OATP1B3 [3] = target: T2, OATP1B3; test: Substrate uptake and transport kinetics in CHO cells stably expressing OATP1B3; conditions: 2 μM substrate, five minute accumulation, CHOvector = 1
OATP1B1 [4] = target: T1, OATP1B1
OATP2B1 [5] = target: T3, OATP2B1 (Homo sapiens, UniProt O94956); test: Substrate uptake in CHO cells stably expressing OATP2B1; format: cell-based; conditions: 2 μM substrate, five minute accumulation, CHOvector = 1
T3 sequence (O94956 1-709): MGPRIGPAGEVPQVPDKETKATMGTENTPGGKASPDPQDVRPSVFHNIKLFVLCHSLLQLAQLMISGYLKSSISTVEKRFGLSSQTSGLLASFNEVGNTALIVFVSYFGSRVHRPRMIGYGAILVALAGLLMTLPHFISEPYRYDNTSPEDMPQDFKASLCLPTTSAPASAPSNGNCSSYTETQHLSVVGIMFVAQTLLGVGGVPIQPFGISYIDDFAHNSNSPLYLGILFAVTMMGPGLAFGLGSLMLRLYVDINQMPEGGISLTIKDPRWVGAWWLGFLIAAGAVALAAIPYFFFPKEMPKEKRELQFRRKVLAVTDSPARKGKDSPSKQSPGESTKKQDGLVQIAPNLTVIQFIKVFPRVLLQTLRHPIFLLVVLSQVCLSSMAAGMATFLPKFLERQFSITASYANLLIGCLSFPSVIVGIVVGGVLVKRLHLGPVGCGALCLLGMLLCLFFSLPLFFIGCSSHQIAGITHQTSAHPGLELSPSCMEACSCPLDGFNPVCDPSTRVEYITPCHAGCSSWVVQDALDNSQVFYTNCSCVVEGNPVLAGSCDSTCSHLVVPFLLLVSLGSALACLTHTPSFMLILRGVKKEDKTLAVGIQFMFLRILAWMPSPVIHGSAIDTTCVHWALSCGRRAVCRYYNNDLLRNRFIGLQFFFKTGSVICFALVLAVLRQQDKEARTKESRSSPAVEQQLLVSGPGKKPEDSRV

OATP1B3 [6] = target: T2, OATP1B3; test: Cellular accumulation in CHO cells transiently transfected with OATP1B3; conditions: 2 μM substrate (figure 2 legend), transiently transfected CHO cells
OATP1B3 [7] = target: T2, OATP1B3; conditions: read-out: OATP1B3 Km; literature value; cited from earlier work
OATP1B1 [8] = target: T1, OATP1B1; test: Substrate uptake and transport kinetics in CHO cells stably expressing OATP1B1; conditions: 2 μM substrate, five minute accumulation, CHOvector = 1
OATP2B1 [9] = target: T3, OATP2B1; test: Cellular accumulation in CHO cells transiently transfected with OATP2B1; format: cell-based; conditions: 2 μM substrate, transiently transfected CHO cells
OAT3 = target: T4, OAT3 (Homo sapiens, UniProt Q8TCC7); format: cell-based; conditions: 2 μM substrate, transiently transfected CHO cells
T4 sequence (Q8TCC7 1-542): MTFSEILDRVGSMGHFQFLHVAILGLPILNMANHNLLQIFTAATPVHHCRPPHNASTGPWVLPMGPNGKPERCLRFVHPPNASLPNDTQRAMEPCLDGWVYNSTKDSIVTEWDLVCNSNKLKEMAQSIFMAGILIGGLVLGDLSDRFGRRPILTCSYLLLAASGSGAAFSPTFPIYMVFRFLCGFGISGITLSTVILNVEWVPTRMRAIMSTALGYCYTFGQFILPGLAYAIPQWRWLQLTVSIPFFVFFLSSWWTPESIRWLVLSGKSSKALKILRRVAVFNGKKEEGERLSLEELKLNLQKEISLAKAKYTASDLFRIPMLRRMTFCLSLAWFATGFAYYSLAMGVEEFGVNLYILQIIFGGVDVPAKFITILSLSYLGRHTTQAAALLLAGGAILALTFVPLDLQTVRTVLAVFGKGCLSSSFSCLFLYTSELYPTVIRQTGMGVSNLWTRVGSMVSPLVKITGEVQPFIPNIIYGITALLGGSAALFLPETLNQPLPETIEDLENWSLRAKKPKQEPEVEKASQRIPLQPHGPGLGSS

OATP1B1 [10] = target: T1, OATP1B1; conditions: 2 μM substrate, transiently transfected CHO cells
OCT1 = target: T5, OCT1 (Homo sapiens, UniProt O15245); test: Cellular accumulation in CHO cells transiently transfected with OCT1; format: cell-based; conditions: 10 μM substrate, transiently transfected CHO cells
T5 sequence (O15245 1-554): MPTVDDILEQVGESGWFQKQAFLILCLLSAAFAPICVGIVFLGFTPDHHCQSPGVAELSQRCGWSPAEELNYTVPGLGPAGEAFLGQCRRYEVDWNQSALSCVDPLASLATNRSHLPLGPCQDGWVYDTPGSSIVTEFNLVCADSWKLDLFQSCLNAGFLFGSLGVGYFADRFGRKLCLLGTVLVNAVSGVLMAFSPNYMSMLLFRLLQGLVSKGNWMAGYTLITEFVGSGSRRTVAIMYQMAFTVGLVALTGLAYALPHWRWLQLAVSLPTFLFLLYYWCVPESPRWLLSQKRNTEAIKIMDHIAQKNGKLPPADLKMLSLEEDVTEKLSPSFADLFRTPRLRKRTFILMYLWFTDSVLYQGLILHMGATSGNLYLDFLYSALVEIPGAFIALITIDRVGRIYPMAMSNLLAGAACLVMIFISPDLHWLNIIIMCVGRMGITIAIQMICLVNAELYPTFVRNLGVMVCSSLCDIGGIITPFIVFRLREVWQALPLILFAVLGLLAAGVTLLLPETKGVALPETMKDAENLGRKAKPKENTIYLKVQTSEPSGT

OCT2 = target: T6, OCT2 (Homo sapiens, UniProt O15244); test: Cellular accumulation in CHO cells transiently transfected with OCT2; format: cell-based; conditions: 10 μM substrate, transiently transfected CHO cells
T6 sequence (O15244 1-555): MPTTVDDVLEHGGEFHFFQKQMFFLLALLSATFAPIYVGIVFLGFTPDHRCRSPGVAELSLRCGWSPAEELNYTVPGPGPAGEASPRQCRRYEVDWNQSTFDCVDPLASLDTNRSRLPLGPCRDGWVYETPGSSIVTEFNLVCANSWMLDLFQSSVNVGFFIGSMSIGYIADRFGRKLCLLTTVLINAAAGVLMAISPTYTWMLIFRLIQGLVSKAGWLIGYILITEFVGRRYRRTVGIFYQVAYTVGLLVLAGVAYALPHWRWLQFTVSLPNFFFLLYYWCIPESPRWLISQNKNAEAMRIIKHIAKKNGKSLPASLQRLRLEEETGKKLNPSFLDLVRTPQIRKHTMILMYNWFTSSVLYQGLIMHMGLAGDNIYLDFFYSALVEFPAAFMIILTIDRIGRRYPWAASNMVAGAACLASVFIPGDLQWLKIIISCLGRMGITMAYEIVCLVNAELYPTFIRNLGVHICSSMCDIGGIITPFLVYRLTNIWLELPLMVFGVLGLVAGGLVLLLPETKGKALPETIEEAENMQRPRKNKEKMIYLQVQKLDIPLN

NTCP = target: T7, NTCP (Homo sapiens, UniProt Q14973); test: Cellular accumulation in CHO cells transiently transfected with NTCP; format: cell-based; conditions: 2 μM substrate, transiently transfected CHO cells
T7 sequence (Q14973 1-349): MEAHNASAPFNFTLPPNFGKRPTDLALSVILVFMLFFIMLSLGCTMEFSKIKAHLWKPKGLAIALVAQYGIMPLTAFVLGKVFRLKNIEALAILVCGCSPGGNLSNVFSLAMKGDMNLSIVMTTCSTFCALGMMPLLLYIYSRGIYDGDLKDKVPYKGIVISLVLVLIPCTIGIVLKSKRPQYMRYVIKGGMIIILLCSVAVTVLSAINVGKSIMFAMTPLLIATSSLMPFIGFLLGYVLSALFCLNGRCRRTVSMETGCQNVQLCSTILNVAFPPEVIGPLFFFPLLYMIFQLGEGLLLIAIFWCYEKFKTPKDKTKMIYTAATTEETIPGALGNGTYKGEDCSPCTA

[11] = read-out: OATP1B3 IC50 value, inhibition of OATP1B3-mediated transport of 1.25 μM 8-FcA, 10 min, mean ± standard error, two experiments
[12] = read-out: OATP1B1 IC50 value, inhibition of OATP1B1-mediated transport of […] 8-FcA, 10 min, mean ± standard error, two experiments

T1 sequence (Q9Y6L6 whole entry): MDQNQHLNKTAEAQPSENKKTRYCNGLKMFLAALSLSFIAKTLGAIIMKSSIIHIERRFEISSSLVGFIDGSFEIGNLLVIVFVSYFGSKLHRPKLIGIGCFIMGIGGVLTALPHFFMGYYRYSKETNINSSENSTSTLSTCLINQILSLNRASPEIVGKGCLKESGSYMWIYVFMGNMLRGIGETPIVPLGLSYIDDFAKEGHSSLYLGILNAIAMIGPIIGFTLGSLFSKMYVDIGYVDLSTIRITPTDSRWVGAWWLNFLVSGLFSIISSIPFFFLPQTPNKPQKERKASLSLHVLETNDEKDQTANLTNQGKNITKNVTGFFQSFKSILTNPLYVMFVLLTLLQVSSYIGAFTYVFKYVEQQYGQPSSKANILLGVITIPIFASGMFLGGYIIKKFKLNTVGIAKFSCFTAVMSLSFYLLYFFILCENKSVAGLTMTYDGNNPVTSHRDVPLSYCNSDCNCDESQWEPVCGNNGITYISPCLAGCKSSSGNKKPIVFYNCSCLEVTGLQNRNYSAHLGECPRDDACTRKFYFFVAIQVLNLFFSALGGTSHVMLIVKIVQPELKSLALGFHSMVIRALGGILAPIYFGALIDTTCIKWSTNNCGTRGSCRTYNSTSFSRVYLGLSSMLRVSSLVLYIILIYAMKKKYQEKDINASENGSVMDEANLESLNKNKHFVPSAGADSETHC

## O=C1OC(c2ccc(O)c(S(=O)(=O)O)c2)(c2ccc(O)c(S(=O)(=O)O)c2)c2c(Br)c(Br)c(Br)c(Br)c21 [bromosulfophthalein]
OATP1B1 [1]
  Km: 0.3 µM
OATP1B3 [2]; [11]
  IC50: 510 ± 20 nM
OATP1B3 [3]
  cellular accumulation relative to control, CHOOATP1B3: 13.8 fold
OATP1B1 [4]; [12]
  IC50: 180 ± 20 nM
OATP2B1 [5]
  cellular accumulation relative to control, CHOOATP2B1: 6.6 fold
OATP1B3 [6]
  increase in activity versus vector control, OATP1B3: 1.26 fold
OATP1B3 [7]
  Km: 0.4 µM

## C[C@]12CC[C@@H]3c4ccc(O)cc4CC[C@H]3[C@@H]1CC[C@@H]2O[C@@H]1O[C@H](C(=O)O)[C@@H](O)[C@H](O)[C@H]1O [estradiol-17β-d-glucuronide]
OATP1B1 [1]
  Km: 5.4 µM
OATP1B3 [2]; [11]
  IC50: 23500 ± 1590 nM
OATP1B1 [4]; [12]
  IC50: 4880 ± 870 nM
OATP1B3 [7]
  Km: 15.8 µM

## C[C@]12CC[C@@H]3c4ccc(OS(=O)(=O)O)cc4CC[C@H]3[C@@H]1CCC2=O [estrone-3-sulfate]
OATP1B3 [2]; [11]
  IC50: 20100 ± 1000 nM
OATP1B1 [8]
  cellular accumulation relative to control, CHOOATP1B1: 36.1 fold
OATP1B3 [3]
  cellular accumulation relative to control, CHOOATP1B3: 4.1 fold
OATP2B1 [9]
  increase in activity compared to vector control, OATP2B1: 12.5 fold
OATP1B1 [4]; [12]
  IC50: 53 ± 5 nM
OAT3
  increase in activity compared to vector control, OAT3: 3.8 fold
OATP1B1 [10]
  increase in activity compared to vector control, OATP1B1: 3.1 fold
OATP1B3 [7]
  Km: 58 µM

## COc1ccc(Cl)cc1C(=O)NCCc1ccc(S(=O)(=O)NC(=O)NC2CCCCC2)cc1 [glibenclamide]
OATP1B3 [2]
  IC50: 2690 ± 120 nM

## CN(C)C(=N)N=C(N)N [metformin]
OCT1
  mean increase in transport over vector control, OCT1: 2.4 fold
OCT2
  mean increase in transport over vector control, OCT2: 24.5 fold

## CO[C@H]1/C=C/O[C@@]2(C)Oc3c(C)c(O)c4c(O)c(c(/C=N/N5CCN(C)CC5)c(O)c4c3C2=O)NC(=O)/C(C)=C\C=C\[C@H](C)[C@H](O)[C@@H](C)[C@@H](O)[C@@H](C)[C@H](OC(C)=O)[C@@H]1C [rifampicin]
OATP1B1 [1]
  Km: 13 µM
OATP1B3 [2]
  IC50: 650 ± 20 nM
OATP1B1 [4]
  IC50: 990 ± 70 nM

## C[C@H](CCC(=O)NCCS(=O)(=O)O)[C@H]1CC[C@H]2[C@@H]3[C@H](O)C[C@@H]4C[C@H](O)CC[C@]4(C)[C@H]3C[C@H](O)[C@]12C [taurocholate]
NTCP
  increase in transport compared to vector control, NTCP: 168.9 fold

## NC(Cc1cc(I)c(Oc2cc(I)c(O)c(I)c2)c(I)c1)C(=O)O (centres unmarked) [thyroxine]
OATP1B1 [1]
  Km: 3 µM
OATP1B3 [2]
  IC50: 2130 ± 170 nM
OATP1B1 [4]
  IC50: 3850 ± 880 nM

— publication PMC2919811 (Analytical biochemistry, 2010)
